Assay results reported in ChEMBL document CHEMBL4011610, “Design, synthesis and optimization of 7-substituted-pyrazolo[4,3-b]pyridine ALK5 (activin receptor-like kinase 5) inhibitors” (Bioorg Med Chem Lett, 2017).

Key:
TGF-beta receptor type-1 [1] = biological target: T1, TGF-beta receptor type-1 (Homo sapiens, UniProt P36897); assay: Inhibition of recombinant N-terminal GST tagged human ALK5 (200 to 503 residues) expressed in baculovirus expression system using FAM-NH2-KVLTQMGSPSIRCSS[PO4]VS peptide as substrate after 90 mins by LanthaScreen TR-FRET assay
T1 sequence (P36897 whole entry): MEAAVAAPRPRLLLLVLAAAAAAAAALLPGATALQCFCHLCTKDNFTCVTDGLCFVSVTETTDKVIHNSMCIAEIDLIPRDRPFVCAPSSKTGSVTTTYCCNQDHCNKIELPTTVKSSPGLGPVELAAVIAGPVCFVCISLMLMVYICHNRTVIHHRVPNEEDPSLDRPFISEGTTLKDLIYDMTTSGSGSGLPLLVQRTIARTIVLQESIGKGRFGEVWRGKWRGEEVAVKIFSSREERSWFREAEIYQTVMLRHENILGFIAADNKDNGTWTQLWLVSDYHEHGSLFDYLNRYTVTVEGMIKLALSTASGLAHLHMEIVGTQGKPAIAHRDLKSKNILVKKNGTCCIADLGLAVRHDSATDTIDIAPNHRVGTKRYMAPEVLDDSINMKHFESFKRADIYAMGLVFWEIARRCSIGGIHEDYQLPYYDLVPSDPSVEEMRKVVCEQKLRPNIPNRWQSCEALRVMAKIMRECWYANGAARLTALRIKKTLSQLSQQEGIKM

TGF-beta receptor type-1 [2] = biological target: T1, TGF-beta receptor type-1; assay: Inhibition of ALK5 (unknown origin) expressed in SBE-bla HEK293T cells assessed as decrease in TGFbeta1-induced Smad2/3 phosphorylation by beta lactamase reporter gene assay; assay type: cell-based
TGF-beta receptor type-1 [3] = biological target: T1, TGF-beta receptor type-1; assay: Inhibition of ALK5 in human Calu6 cells assessed as reduction in Smad2/3 phosphorylation; assay type: cell-based
[4] = Hepatic extraction ratio in human; assay type: ADME; conditions: read-out: ERH
[5] = Hepatic extraction ratio in rat; assay type: ADME; conditions: read-out: ERH
hERG (KCNH2) = hERG (KCNH2) (Homo sapiens, UniProt Q12809); assay: Inhibition of human ERG expressed in CHOK1 cells at 10 uM by automated whole cell patch clamp Qpatch method relative to control; assay type: cell-based; conditions: CHO-K1 cells expressing human ERG
[6] = Oral bioavailability in rat; assay type: ADME, organism-based; conditions: in vivo
Cytochrome P450 3A4 = Cytochrome P450 3A4 (Homo sapiens, UniProt P08684); assay: Inhibition of CYP3A4 (unknown origin); assay type: ADME
[7] = Clearance in rat; assay type: ADME; conditions: in vivo
Cytochrome P450 2C8 = biological target: T2, Cytochrome P450 2C8 (Homo sapiens, UniProt P10632); assay: Inhibition of CYP2C8 (unknown origin); assay type: ADME
T2 sequence (P10632 whole entry): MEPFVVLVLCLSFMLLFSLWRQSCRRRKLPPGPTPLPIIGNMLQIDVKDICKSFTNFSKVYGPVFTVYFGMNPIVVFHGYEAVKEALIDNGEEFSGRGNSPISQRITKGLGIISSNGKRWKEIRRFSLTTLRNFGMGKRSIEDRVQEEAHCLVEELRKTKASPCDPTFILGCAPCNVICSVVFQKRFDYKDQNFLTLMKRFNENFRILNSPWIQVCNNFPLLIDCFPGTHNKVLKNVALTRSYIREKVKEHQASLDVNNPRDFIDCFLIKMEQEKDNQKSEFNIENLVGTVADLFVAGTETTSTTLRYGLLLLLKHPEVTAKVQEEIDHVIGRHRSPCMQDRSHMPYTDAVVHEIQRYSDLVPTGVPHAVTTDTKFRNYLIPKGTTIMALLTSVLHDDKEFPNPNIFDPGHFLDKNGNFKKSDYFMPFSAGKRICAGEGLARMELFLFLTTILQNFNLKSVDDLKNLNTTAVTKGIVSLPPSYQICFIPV

[8] = Clearance in rat microsomes; assay type: ADME, Microsome
[9] = Clearance in human microsomes; assay type: ADME, Microsome

hERG (KCNH2), sequence (Q12809 whole entry): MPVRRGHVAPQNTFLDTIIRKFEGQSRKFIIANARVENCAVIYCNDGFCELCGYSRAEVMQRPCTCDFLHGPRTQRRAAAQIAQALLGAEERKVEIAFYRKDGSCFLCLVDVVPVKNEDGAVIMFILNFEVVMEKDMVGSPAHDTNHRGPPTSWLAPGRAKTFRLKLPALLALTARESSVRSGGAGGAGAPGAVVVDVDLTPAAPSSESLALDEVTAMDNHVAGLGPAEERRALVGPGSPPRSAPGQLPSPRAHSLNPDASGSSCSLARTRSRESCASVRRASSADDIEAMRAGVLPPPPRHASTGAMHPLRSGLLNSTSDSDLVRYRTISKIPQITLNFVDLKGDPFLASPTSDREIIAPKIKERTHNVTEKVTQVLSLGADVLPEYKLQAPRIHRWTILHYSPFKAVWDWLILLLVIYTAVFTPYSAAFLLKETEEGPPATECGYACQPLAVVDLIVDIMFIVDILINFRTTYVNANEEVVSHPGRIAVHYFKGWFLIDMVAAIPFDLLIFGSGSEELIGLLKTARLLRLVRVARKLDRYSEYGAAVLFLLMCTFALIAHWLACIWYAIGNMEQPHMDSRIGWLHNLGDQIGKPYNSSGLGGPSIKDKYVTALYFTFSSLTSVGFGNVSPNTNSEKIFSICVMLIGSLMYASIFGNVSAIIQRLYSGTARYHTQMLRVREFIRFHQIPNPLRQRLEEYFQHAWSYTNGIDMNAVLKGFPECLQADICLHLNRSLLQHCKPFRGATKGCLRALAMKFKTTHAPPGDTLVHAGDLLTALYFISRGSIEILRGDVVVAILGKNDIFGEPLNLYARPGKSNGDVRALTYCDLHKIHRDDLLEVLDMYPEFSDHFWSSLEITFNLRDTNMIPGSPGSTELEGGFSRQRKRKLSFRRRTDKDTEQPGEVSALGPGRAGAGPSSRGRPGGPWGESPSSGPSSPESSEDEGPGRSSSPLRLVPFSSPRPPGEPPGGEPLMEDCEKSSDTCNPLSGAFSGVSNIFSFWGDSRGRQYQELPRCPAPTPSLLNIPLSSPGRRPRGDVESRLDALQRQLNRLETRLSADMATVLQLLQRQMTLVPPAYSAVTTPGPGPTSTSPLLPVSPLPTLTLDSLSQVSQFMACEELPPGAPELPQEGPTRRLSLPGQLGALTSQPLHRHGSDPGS
Cytochrome P450 3A4, sequence (P08684 whole entry): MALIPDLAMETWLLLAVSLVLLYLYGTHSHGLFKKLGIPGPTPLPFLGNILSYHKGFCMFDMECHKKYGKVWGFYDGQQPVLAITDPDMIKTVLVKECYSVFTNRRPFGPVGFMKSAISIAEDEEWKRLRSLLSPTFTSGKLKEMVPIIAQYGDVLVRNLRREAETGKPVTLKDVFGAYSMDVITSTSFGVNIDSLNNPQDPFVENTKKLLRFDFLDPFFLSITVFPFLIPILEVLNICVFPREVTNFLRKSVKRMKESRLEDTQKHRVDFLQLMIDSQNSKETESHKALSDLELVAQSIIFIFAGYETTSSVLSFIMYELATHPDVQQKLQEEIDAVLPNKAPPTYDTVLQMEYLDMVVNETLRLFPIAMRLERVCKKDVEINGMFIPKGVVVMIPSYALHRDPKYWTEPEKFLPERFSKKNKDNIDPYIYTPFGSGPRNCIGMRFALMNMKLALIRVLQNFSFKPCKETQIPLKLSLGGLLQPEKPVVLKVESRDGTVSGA

Row | Structure (SMILES) | IC50 (TGF-beta receptor type-1 [1]) [nM] | EC50 (TGF-beta receptor type-1 [2]) [nM] | EC50 (TGF-beta receptor type-1 [3]) [nM] | hepatic extraction ratio [4] | hepatic extraction ratio [5] | other results
1 | CNC(=O)n1ncc2nccc(Nc3ccnc(-c4cc(F)ccc4F)c3)c21 | 2.51 | 20 | 126 | 0.55 | 0.27 | –
2 | CNC(=O)n1ncc2nccc(Nc3ccnc(-c4cc(Cl)ccc4F)c3)c21 | 3.16 | 25.1 | 63.1 | 0.57 | 0.31 | –
3 | Cc1ccc(F)c(-c2cc(Nc3ccnc4cnn(C[C@@H](C)O)c34)c(C)cn2)n1 | 7.94 | 100 | 501 | 0.3 | 0.3 | inhibition at 10 µM (hERG (KCNH2)): 42%; bioavailability [6]: 38%
4 | CCc1cnc(-c2cc(Cl)ccc2F)cc1Nc1ccnc2cccc(OC)c12 | 25.1 | – | – | – | – | –
5 | NC(=O)Cn1cc2nccc(Nc3ccnc(-c4cc(Cl)ccc4F)c3)c2n1 | 12.6 | 100 | – | 0.52 | 0.54 | inhibition at 10 µM (hERG (KCNH2)): 41 to 59%; IC50 (Cytochrome P450 3A4): 12600 nM
6 | Cc1cnc(-c2cc(Cl)ccc2F)cc1Nc1ccnc2cn(CC(N)=O)nc12 | – | 12.6 | 31.6 | 0.46 | 0.56 | inhibition at 10 µM (hERG (KCNH2)): 41 to 59%; IC50 (Cytochrome P450 3A4): > 50100 nM
7 | COc1cccc2nccc(Nc3ccnc(-c4cc(C)ccc4F)c3)c12 | 25.1 | – | – | – | – | –
8 | Cc1cnc(-c2cc(Cl)ccc2F)cc1Nc1ccnc2cnn(CC(N)=O)c12 | – | 20 | 31.6 | 0.54 | 0.44 | inhibition at 10 µM (hERG (KCNH2)): 41 to 59%; IC50 (Cytochrome P450 3A4): 12600 nM; clearance [7]: 42 mL/min/kg; bioavailability [6]: 71%
9 | Fc1ccc(Cl)cc1-c1cc(Nc2ccnc3cn[nH]c23)ccn1 | 6.31 | 50.1 | – | – | – | –
10 | Cc1cccc(-c2cc(Nc3ccnc4cn[nH]c34)c(C)cn2)n1 | 5.01 | 31.6 | 200 | – | – | –
11 | CCNC(=O)n1ncc2nccc(Nc3ccnc(-c4cc(F)ccc4F)c3)c21 | – | 31.6 | 158 | 0.53 | 0.29 | –
12 | COc1cccc2nccc(Nc3ccnc(-c4cc(Cl)ccc4F)c3)c12 | 20 | – | – | – | – | –
13 | COc1cccc2nccc(Nc3cc(-c4cccc(Cl)c4)ncc3C)c12 | 31.6 | – | – | – | – | –
14 | NC(=O)Cn1cc2nccc(Nc3ccnc(-c4cc(F)ccc4F)c3)c2n1 | – | 251 | 1580 | 0.44 | 0.42 | –
15 | CCn1cc2nccc(Nc3cc(-c4cc(C)ccc4F)ncc3C)c2n1 | 10 | 15.8 | 158 | – | – | –
16 | Cc1cnc(-c2cc(Cl)ccc2F)cc1Nc1ccnc2cn[nH]c12 | 15.8 | 31.6 | – | 0.57 | 0.75 | IC50 (Cytochrome P450 2C8): 398 nM; IC50 (Cytochrome P450 3A4): 3160 nM
17 | Cc1cnc(-c2cc(F)ccc2F)cc1Nc1ccnc2cnn(CC(C)O)c12 (centres undefined) | 3.16 | 7.94 | 20 | 0.64 | 0.54 | –

Row | Structure (SMILES) | IC50 (TGF-beta receptor type-1 [1]) [nM] | EC50 (TGF-beta receptor type-1 [2]) [nM] | EC50 (TGF-beta receptor type-1 [3]) [nM] | hepatic extraction ratio [4] | hepatic extraction ratio [5] | other results
18 | COc1cccc2nccc(Nc3ccnc(-c4ccccc4)c3)c12 | 631 | – | – | – | – | –
19 | Cc1ccc(F)c(-c2cc(Nc3ccnc4cnn(CCO)c34)c(C)cn2)n1 | 12.6 | 20 | – | – | – | –
20 | Cc1cnc(-c2cc(F)ccc2F)cc1Nc1ccnc2cn(CC(C)O)nc12 (centres undefined) | – | 126 | 158 | 0.79 | 0.68 | –
21 | NC(=O)Cn1ncc2nccc(Nc3ccnc(-c4cc(F)ccc4F)c3)c21 | – | 200 | 1260 | 0.53 | 0.57 | –
22 | Cc1ccc(F)c(-c2cc(Nc3ccnc4cn[nH]c34)ccn2)c1 | 15.8 | – | – | – | – | –
23 | CNC(=O)n1ncc2nccc(Nc3cc(-c4cc(Cl)ccc4F)ncc3C)c21 | 15.8 | 31.6 | – | 0.51 | 0.52 | –
24 | COc1cccc2nccc(Nc3cc(-c4cc(Cl)ccc4F)ncc3C3CC3)c12 | 50.1 | – | – | – | – | –
25 | Cc1ccc(F)c(-c2cc(Nc3ccnc4cn[nH]c34)c(C)cn2)n1 | 2.51 | – | 31.6 | 0.57 | 0.74 | IC50 (Cytochrome P450 2C8): 2510 nM; IC50 (Cytochrome P450 3A4): 6310 nM
26 | Fc1ccc(Cl)cc1-c1cc(Nc2ccnc3cn(CC4CCNCC4)nc23)ccn1 | 100 | 1000 | – | 0.36 | 0.16 | –
27 | COc1cccc2nccc(Nc3ccnc(-c4cccc(Cl)c4)c3)c12 | 316 | – | – | – | – | –
28 | COc1cccc2nccc(Nc3cc(-c4cc(C)ccc4F)ncc3C)c12 | 12.6 | – | – | – | – | –
29 | COc1cccc2nccc(Nc3ccnc(-c4nc(C)ccc4F)c3)c12 | 39.8 | – | – | – | – | –
30 | Fc1ccc(Cl)cc1-c1cc(Nc2ccnc3cnn(CC4CCNCC4)c23)ccn1 | – | – | – | 0.91 | 0.93 | –
31 | CNC(=O)n1ncc2nccc(Nc3cc(-c4cc(F)ccc4F)ncc3C)c21 | – | 25.1 | 20 | < 0.23 | 0.2 | –
32 | COc1cccc2nccc(Nc3cc(-c4cc(Cl)ccc4F)ncc3C)c12 | 12.6 | – | – | – | – | CLint scaled [8]: 302 mL/min/kg; CLint scaled [9]: 86 mL/min/kg; inhibition at 10 µM (hERG (KCNH2)): 94%
33 | Cc1cnc(-c2cc(F)ccc2F)cc1Nc1ccnc2cn[nH]c12 | – | 7.94 | 31.6 | 0.74 | 0.84 | IC50 (Cytochrome P450 2C8): 316 nM; IC50 (Cytochrome P450 3A4): 1580 nM
